According to patent publication US11332494B2, “Nanoemulsions and methods for cancer therapy” (Fernando Thome Kreutz, priority 2016, dated 2022):
Where two headings read alike, the source gives them in different places.

Assays:
Test in all cases: Cell viability assay (Hoechst 33342/PI, ImageXpress)
Type in all cases: cell-based
A172 = conditions: A 172; A172, human brain glioblastoma; Table 2
Protocol: (§1) The purity of each oxysterol was determined to be 98% by GS/MS. For all experiments, a stock solution was prepared at a concentration of 1000 μM in absolute ethanol. The concentrations used in the experiments were in the range of those described to induce cell death on several cell lines. For the experiments, cells were plated at a density of 1.5×10^3 cells/[…] in triplicate in 96-well Black Flat Bottom Polystyrene Microplates (Corning, Mass.) and incubated in CO2 atmosphere. Several concentrations of each oxysterol (0 to 100 μM, 200 μL final volume) were added to the media, followed by incubation for 24 h. At the end of this experimental period, several parameters were determined in each of the three samples, as described hereafter.
(§2) After 24 h cells were incubated with Hoechst 33342 (0.1 μg/mL) and 0.5 μl propidium iodide (PI) for 15 min. ImageXpress Micro high content screening system (Molecular Devices, Sunnyvale, Calif.) was used to determine the number of live and death cells. Nine sites per well and three wells per treatment were acquired. Cell Scoring MetaXpress software was used to analyze the number of cells and the viability. For IC50 calculations, survival data were evaluated by variable slope curve-fitting with GraphPad Prism.

HeLa = conditions: human cervix adenocarcinoma, Table 2
Protocol: as §1, §2

HepG-2 = conditions: HepG2; HepG-2, human hepatocellular carcinoma; Table 2
Protocol: as §1, §2

Jurkat = conditions: human acute T cell leukemia, Table 2
Protocol: as §1, §2

MRC-5 = conditions: MRC5; MRC-5, human lung normal; Table 2
Protocol: as §1, §2

Molt-4 = conditions: Molt-4, human acute lymphoblastic leukemia; Table 2
Protocol: as §1, §2

PC-3 = conditions: PC-3, human prostate grade IV adenocarcinoma; Table 2
Protocol: as §1, §2

Raji = conditions: human Burkitt's lymphoblast, Table 2
Protocol: as §1, §2

T98G = conditions: human brain glioblastoma, Table 2
Protocol: as §1, §2

U87-MG = conditions: U-87 MG, human glioblastoma astrocytoma, Table 2
Protocol: as §1, §2

B16-F10 cell line = conditions: Mus musculus
Protocol: as §1, with “Several concentrations of each oxysterol (0 to 100 μM, 200 μL final volume) were added to the media, followed by incubation for 24 h.” left out
as §2

MDA-MB-321 cell line = test system: MDA-MB-321 cell line
Protocol: as §1, with “Several concentrations of each oxysterol (0 to 100 μM, 200 μL final volume) were added to the media, followed by incubation for 24 h.” left out
as §2

HUV-EC = conditions: Homo sapiens, HUVEC, Table 4, time and unit inferred
Protocol: as §1, with “hereafter. After 24 h cells were incubated with Hoechst 33342 (0.1 μg/mL) and 0.5 μl propidium iodide (PI) for 15 min. ImageXpress Micro high content screening system (Molecular Devices, Sunnyvale, Calif.) was used to determine the number of live and death cells. Nine sites per well and three wells per treatment were acquired. Cell Scoring MetaXpress software was used to analyze the number of cells and the viability. For IC50 calculations, survival data were evaluated by variable slope curve-fitting with GraphPad Prism.” for “hereafter.”

LL 24 = conditions: LL24, Table 4, time and unit inferred
Protocol: as §1, with “hereafter. After 24 h cells were incubated with Hoechst 33342 (0.1 μg/mL) and 0.5 μl propidium iodide (PI) for 15 min. ImageXpress Micro high content screening system (Molecular Devices, Sunnyvale, Calif.) was used to determine the number of live and death cells. Nine sites per well and three wells per treatment were acquired. Cell Scoring MetaXpress software was used to analyze the number of cells and the viability. For IC50 calculations, survival data were evaluated by variable slope curve-fitting with GraphPad Prism.” for “hereafter.”

[1] = B16-F10, 24 h, Table 3, read-out: B16-F10 cell line IC50 (uM) 24 h
[2] = B16-F10, 48 h, Table 3, read-out: B16-F10 cell line IC50 (uM) 48 h
[3] = B16-F10, 72 h, Table 3, read-out: B16-F10 cell line IC50 (uM) 72 h
[4] = B16 F10, Table 4, time and unit inferred, read-out: IC50 B16 F10
[5] = MDA-MB-321, 24 h, Table 3, read-out: MDA-MB-321 cell line IC50 (uM) 24 h
[6] = MDA-MB-321, 48 h, Table 3, read-out: MDA-MB-321 cell line IC50 (uM) 48 h
[7] = MDA-MB-321, 72 h, Table 3, read-out: MDA-MB-321 cell line IC50 (uM) 72 h
[8] = MDA-MB-321, Table 4, time and unit inferred, read-out: IC50 MDA-MB-321

SMILES | IC50 (A172) [µM] | IC50 (HeLa) [µM] | IC50 (HepG-2) [µM] | IC50 (Jurkat) [µM] | IC50 (MRC-5) [µM] | IC50 (Molt-4) [µM] | IC50 (PC-3) [µM] | IC50 (Raji) [µM] | IC50 (T98G) [µM] | IC50 (U87-MG) [µM] | IC50 (B16-F10 cell line; [1]) [µM] | IC50 (B16-F10 cell line; [2]) [µM] | IC50 (B16-F10 cell line; [3]) [µM] | IC50 (B16-F10 cell line; [4]) [µM] | IC50 (MDA-MB-321 cell line; [5]) [µM] | IC50 (MDA-MB-321 cell line; [6]) [µM] | IC50 (MDA-MB-321 cell line; [7]) [µM] | IC50 (MDA-MB-321 cell line; [8]) [µM] | IC50 (HUV-EC) [µM] | IC50 (LL 24) [µM]
CC(C)CCCC(C)C1CCC2C3CC(O)C4(O)CC(O)CC[C@]4(C)C3CC[C@]12C (stereo in doubt) [Ox-2, Cholestane-3α-5β-6α-triol] | 23.6 | 19.9 | 19 | 46.6 | 47.5 | 12.3 | 21 | 39 | 27.5 | 29.8 | 18.1 | 21.4 | 15.4 | 41.3 | 7.9 | 21.1 | 25.2 | 37.5 | 73.6 | 38.4
CC(C)CCCC(C)C1CCC2C3CC(O)C4CC(O)CC[C@]4(C)C3CC[C@]12C (stereo in doubt) [Ox-4, (3α,5β,6α)-cholestane-3,6-diol] | – | – | – | – | – | – | – | – | – | – | 58.3 | 52.9 | 82.6 | 42.4 | 66.6 | 39.7 | 35.3 | 59 | – | 28.3
CC(C)CCC[C@@H](C)[C@H]1CC[C@H]2[C@@H]3C(=O)C=C4C[C@@H](O)CC[C@]4(C)[C@H]3CC[C@]12C [Ox-1, 7-Ketocholesterol] | 15.6 | 33.2 | 42.5 | 55.8 | 78.6 | 38 | 19.2 | 63.3 | – | 55.6 | 19.9 | 21.7 | 29.6 | 35.6 | 54.4 | 50.4 | 48.1 | 37.6 | 39.4 | 49.5
CC(C)CCC[C@H](C)C1CCC2C3C(=O)C=C4C=CCC[C@]4(C)C3CC[C@@]21C (stereo partly shown) [Ox-3, 3,5-cholestan-7-one] | – | – | – | – | – | – | – | – | – | – | – | 377 | 52.9 | 118 | – | – | – | – | – | –
CC(=O)O[C@H]1CC[C@@]2(C)C(=CC[C@H]3[C@@H]4CC[C@H]([C@H](C)CCCC(C)C)[C@@]4(C)CC[C@@H]32)C1 [Ox-5, Cholesteryl acetate] | – | – | – | – | – | – | – | – | – | – | – | – | – | – | – | – | 89.8 | – | – | –
CC(=O)O[C@H]1CC[C@@]2(C)C(=CC(=O)[C@H]3[C@@H]4CC[C@H]([C@H](C)CCCC(C)C)[C@@]4(C)CC[C@@H]32)C1 [Ox-6, 7-oxocholest-5-en-3-β-yl acetate] | – | – | – | – | – | – | – | – | – | – | – | – | – | – | – | 8560 | 829 | – | – | –
CC(C)CCC[C@@H](C)[C@H]1CC[C@H]2[C@@H]3C(=O)[C@@H]4O[C@@]45C[C@@H](O)CC[C@]5(C)[C@H]3CC[C@]12C [Ox-8, (3α,5β,6α)-3-OH-5,6-epoxycholestan-7-one] | – | – | – | – | – | – | – | – | – | – | – | – | – | 37 | – | – | – | 40 | 35.2 | 46.5
